Source: patent US9321756B2, “Azole compounds as PIM inhibitors” (priority 2011, dated 2016)
pIC50: −log10 of the molar value. Where two headings read alike, the source gives them in different places.

Key:
[1] = target: full length recombinant Pim-2 (Homo sapiens (Human), UniProt Q9P1W9); assay: Pim enzyme assay (HTRF, phosphorylation of biotinylated-BAD (S112) peptide), Pim-2; format: biochemical; details: read-out: Pim2_IC50
[2] = target: full length recombinant Pim-1 (Homo sapiens (Human), UniProt P11309); assay: Pim enzyme assay (HTRF, phosphorylation of biotinylated-BAD (S112) peptide), Pim-1; format: biochemical
[3] = Pim-1 enzyme assay, read-out: Pim_1_IC50
[4] = HTRF, 10-point curve, high dose 1 uM, 45 min at RT
[5] = HTRF, 10-point curve, high dose 1 uM, 2 h at RT, read-out: Pim_1_IC50

full length recombinant Pim-1, sequence (P11309 whole entry): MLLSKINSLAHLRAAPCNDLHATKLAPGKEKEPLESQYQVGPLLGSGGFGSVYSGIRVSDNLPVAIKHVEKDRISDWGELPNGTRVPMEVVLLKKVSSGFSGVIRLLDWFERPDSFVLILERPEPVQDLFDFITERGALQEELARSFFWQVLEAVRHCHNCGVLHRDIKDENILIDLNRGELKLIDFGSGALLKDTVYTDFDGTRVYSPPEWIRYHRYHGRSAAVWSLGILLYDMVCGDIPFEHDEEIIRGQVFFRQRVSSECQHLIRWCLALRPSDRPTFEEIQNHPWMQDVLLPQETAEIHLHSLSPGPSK
full length recombinant Pim-2, sequence (Q9P1W9 whole entry): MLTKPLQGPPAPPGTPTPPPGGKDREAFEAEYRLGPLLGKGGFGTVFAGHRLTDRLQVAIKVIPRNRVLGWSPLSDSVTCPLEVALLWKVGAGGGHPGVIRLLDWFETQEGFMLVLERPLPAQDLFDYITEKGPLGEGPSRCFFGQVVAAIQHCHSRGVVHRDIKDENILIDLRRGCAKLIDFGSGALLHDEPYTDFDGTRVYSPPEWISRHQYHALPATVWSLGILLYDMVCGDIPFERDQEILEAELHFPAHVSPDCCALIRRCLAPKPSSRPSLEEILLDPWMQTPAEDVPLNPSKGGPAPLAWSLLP

| Structure (SMILES) | pIC50 ([1]; Pim-2 enzyme assay) | pIC50 [1, 4] | pIC50 [2, 5] | also measured |
| --- | --- | --- | --- | --- |
| COc1nc(-c2c[nH]c3ccc(-c4nnc(NC(C)C)o4)cc23)nc(C)c1F [Example 260, 5-(3-(5-fluoro-4-methoxy-6-methyl-2-pyrimidinyl)-1H-indol-5-yl)-N-(1-methylethyl)-1,3,4-oxadiazol-2-amine] | 6.97 |  |  | pIC50 [2, 3]: 6.80 |
| CC(C)Nc1nnc(-c2ccc3[nH]cc(-c4nccc(C(N)=O)n4)c3c2)o1 [Example 261, 2-(5-(5-((1-methylethyl)amino)-1,3,4-oxadiazol-2-yl)-1H-indol-3-yl)-4-pyrimidinecarboxamide] | 7.15 |  |  | pIC50 [2]: 6.98 |
| CC(C)Nc1nnc(-c2ccc3[nH]cc(-c4ncc(F)c(C5CC5)n4)c3c2)o1 [Example 262, 5-(3-(4-cyclopropyl-5-fluoro-2-pyrimidinyl)-1H-indol-5-yl)-N-(1-methylethyl)-1,3,4-oxadiazol-2-amine] | 8.56 |  |  | pIC50 [2, 3]: 8.60 |
| CC(C)Nc1nnc(-c2ccc3[nH]cc(-c4nc(C5CC5)n[nH]4)c3c2)o1 [Example 263, 5-(3-(3-cyclopropyl-1H-1,2,4-triazol-5-yl)-1H-indol-5-yl)-N-(1-methylethyl)-1,3,4-oxadiazol-2-amine] | 6.42 |  |  | pIC50 [2, 3]: 6.62 |
| CC(C)Cc1nnc(-c2ccc3[nH]cc(-c4cncc(C5CC5)n4)c3c2)o1 [Example 265, 3-(6-cyclopropyl-2-pyrazinyl)-5-(5-(2-methylpropyl)-1,3,4-oxadiazol-2-yl)-1H-indole] | 7.29 |  |  | pIC50 [2]: 7.54 |
| Fc1cccc(Nc2nnc(-c3ccc4[nH]cc(-c5nccc(C6CC6)n5)c4c3)o2)c1 [Example 269, 5-(3-(4-cyclopropyl-2-pyrimidinyl)-1H-indol-5-yl)-N-(3-fluorophenyl)-1,3,4-oxadiazol-2-amine] | 6.35 |  |  | pIC50 [2, 3]: 6.44 |
| Cc1ccnc(-c2c[nH]c3ccc(-c4nnc(NC(C)(C)C)o4)cc23)n1 [Example 270, N-tert-butyl-5-(3-(4-methyl-2-pyrimidinyl)-1H-indol-5-yl)-1,3,4-oxadiazol-2-amine] | 7.46 |  |  | pIC50 [2, 3]: 8.06 |
| Cc1cc(N)nc(-c2c[nH]c3ccc(-c4nnc(NC(C)(C)C)o4)cc23)n1 [Example 272, 2-(5-(5-(tert-butylamino)-1,3-4-oxadiazol-2-yl)-1H-indol-3-yl)-6-methyl-4-pyrimidinamine] | 6.45 |  |  | pIC50 [2, 3]: 6.98 |
| CC(C)(C)Nc1nnc(-c2ccc3[nH]cc(-c4nccc(C(N)=O)n4)c3c2)o1 [Example 273, 2-(5-(5-(tert-butylamino)-1,3-4-oxadiazol-2-yl)-1H-indol-3-yl)-4-pyrimidinecarboxamide] | 7.55 |  |  | pIC50 [2, 3]: 7.93 |
| Cc1cncc(-c2c[nH]c3ccc(-c4nnc(-c5ccccc5)s4)cc23)n1 [Example 274, 3-(6-methyl-2-pyrazinyl)-5-(5-phenyl-1,3,4-thiadiazol-2-yl)-1H-indole] | < 6.00 |  |  | pIC50 [2]: < 6.00 |
| CC(C)Nc1nnc(-c2ccc3[nH]cc(-c4ncc(C(=O)NC5CC5)s4)c3c2)o1 [Example 275, N-cyclopropyl-2-(5-(5-((1-methylethyl)amino)-1,3,4-oxadiazol-2-yl)-1H-indol-3-yl)-1,3-thiazole-5-carboxamide] |  | 6.15 | 6.59 |  |
| CC(C)Nc1nnc(-c2ccc3[nH]cc(-c4ncc(C(N)=O)s4)c3c2)o1 [Example 276, 2-(5-(5-((1-methylethyl)amino)-1,3,4-oxadiazol-2-yl)-1H-indol-3-yl)-1,3-thiazole-5-carboxamide] |  | 6.50 | 6.95 |  |
| CC(C)(C)Nc1nnc(-c2ccc3[nH]cc(-c4ncc(C(N)=O)s4)c3c2)o1 [Example 277, 2-(5-(5-(tert-butylamino)-1,3,4-oxadiazol-2-yl)-1H-indol-3-yl)-1,3-thiazole-5-carboxamide] |  | 6.41 | 7.24 |  |
| CC(C)Nc1nnc(-c2ccc3[nH]cc(-c4nc(C(=O)NC5CC5)cs4)c3c2)o1 [Example 278, N-cyclopropyl-2-(5-(5-((1-methylethyl)amino)-1,3,4-oxadiazol-2-yl)-1H-indol-3-yl)-1,3-thiazole-4-carboxamide] |  | 6.39 | 6.73 |  |
| CNC(=O)c1ccnc(-c2c[nH]c3ccc(-c4nnc(NC(C)C)o4)cc23)n1 [Example 282, N-methyl-2-(5-(5-((1-methylethyl)amino)-1,3,4-oxadiazol-2-yl)-1H-indol-3-yl)-4-pyrimidinecarboxamide 2,2,2-trifluoroacetate] |  | 6.19 | 6.29 |  |
| CC(C)Nc1nnc(-c2ccc3[nH]cc(-c4nccc(C(=O)NC5CC5)n4)c3c2)o1 [Example 283, N-cyclopropyl-2-(5-(5-((1-methylethyl)amino)-1,3,4-oxadiazol-2-yl)-1H-indol-3-yl)-4-pyrimidinecarboxamide 2,2,2-trifluoroacetate] |  | 6.34 | 6.29 |  |
| CS(=O)(=O)c1ccc(-c2c[nH]c3ccc(-c4nnc(N)o4)cc23)nc1 [Example 284, 5-(3-(5-(methylsulfonyl)-2-pyridinyl)-1H-indol-5-yl)-1,3,4-oxadiazol-2-amine 2,2,2-trifluoroacetate] |  |  | 6.29 | pIC50 [1]: 6.26 |
| CNC(=O)c1cccc(-c2c[nH]c3ccc(-c4nnc(NC(C)C)o4)cc23)n1 [Example 285, 6-(5-(5-(isopropylamino)-1,3,4-oxadiazol-2-yl)-1H-indol-3-yl)-N-methylpicolinamide] |  | 6.12 | 6.40 |  |
| CNC(=O)c1cncc(-c2c[nH]c3ccc(-c4nnc(NC(C)C)o4)cc23)c1 [Example 286, 5-(5-(5-(isopropylamino)-1,3,4-oxadiazol-2-yl)-1H-indol-3-yl)-N-methylnicotinamide] |  | 6.07 | 6.15 |  |
| CNC(=O)c1ccc(F)c(-c2c[nH]c3ccc(-c4nnc(NC(C)C)o4)cc23)c1 [Example 289, 4-fluoro-3-(5-(5-(isopropylamino)-1,3,4-oxadiazol-2-yl)-1H-indol-3-yl)-N-methylbenzamide] |  | 6.52 |  | pIC50 [2]: 6.63 |
| CC(C)Nc1nnc(-c2ccc3[nH]cc(-c4ccc(C(N)=O)cc4F)c3c2)o1 [Example 290, 3-fluoro-4-(5-(5-(isopropylamino)-1,3,4-oxadiazol-2-yl)-1H-indol-3-yl)benzamide] |  | 6.62 |  | pIC50 [2]: 7.16 |
| CC(C)Nc1nnc(-c2ccc3[nH]cc(-c4cccc(C(=O)N(C)C)n4)c3c2)o1 [Example 292, N,N-dimethyl-6-(5-(5-((1-methylethyl)amino)-1,3,4-oxadiazol-2-yl)-1H-indol-3-yl)-2-pyridinecarboxamide] |  | 6.27 | 6.30 |  |
| CC(C)Nc1nnc(-c2ccc3[nH]cc(-c4cncc(C(=O)N(C)C)c4)c3c2)o1 [Example 296, N,N-dimethyl-5-(5-(5-((1-methylethyl)amino)-1,3,4-oxadiazol-2-yl)-1H-indol-3-yl)-3-pyridinecarboxamide] |  | < 6.00 | < 6.00 |  |
| COc1nccc(-c2c[nH]c3ccc(-c4nnc(NC(C)C)o4)cc23)n1 [Example 297, 5-(3-(2-methoxy-4-pyrimidinyl)-1H-indol-5-yl)-N-(1-methylethyl)-1,3,4-oxadiazol-2-amine] |  | 7.13 | 7.41 |  |
| COc1nc(-c2c[nH]c3ccc(-c4nnc(NC(C)C)o4)cc23)cc(=O)[nH]1 [Example 298, 2-methoxy-6-(5-(5-((1-methylethyl)amino)-1,3,4-oxadiazol-2-yl)-1H-indol-3-yl)-4(3H)-pyrimidinone] |  | 7.61 | 7.80 |  |
